This passage reports IC50 results from patent US11453683B1, “KRas G12D inhibitors” (Mirati Therapeutics, Inc., priority 2019, dated 2022).

Molecules are shown by their SMILES. Structures can show the parent of a compound that is named as a salt.

For this test, the system named is KRas G12D-mediated phosphorylation of ERK. Description: Inhibition of KRas G12D-mediated phosphorylation of ERK in AGS cells. Type of test: cell-based. The conditions noted are these: Homo sapiens; AGS cells expressing G12D, 3 hours, phospho-ERK normalized to GAPDH. The protocol: Cells were plated in tissue culture treated 96 well plates at a density of 40,000 cells/well and allowed to attach for 12-14 hours. Diluted compounds were then added in a final concentration of 0.5% DMSO. After 3 hours, the medium was removed, 150 μL of 4.0% formaldehyde was added and the plates incubated at room temperature for 20 minutes. The plates were washed with PBS, and permeabilized with 150 μL of ice cold 100% methanol for 10 minutes. Non-specific antibody binding to the plates was blocked using 100 μL Licor blocking buffer (Li-Cor Biotechnology, Lincoln Nebr.) for 1 hour at room temperature.
The amount of phospho-ERK was determined using an antibody specific for the phosphorylated form of ERK and compared to the amount of GAPDH. Primary antibodies used for the detection were added as follows: Phospho-ERK (Cell Signaling cs-9101) diluted 1:500 and GAPDH (Millipore MAB374) diluted 1:5000 in Licor block+0.05% Tween 20. The plates were incubated for 2 hours at room temperature. The plates were washed with PBS+0.05% Tween 20.
Secondary antibodies used to visualize primary antibodies were added as follows: Anti-rabbit-680 diluted 1:1000 and Anti-mouse-800 diluted 1:1000 both in Licor block+0.05% TweeN2O, and were incubated for 1 hour at room temperature. The plates were washed with PBS+0.05% Tween 20. A 100 μL aliquot of PBS was added to each well and the plates were read on a Li-Cor Odyssey CLX plate reader.
The phospho-ERK (Thr202/Tyr204 signal was normalized to the GAPDH signal for each well and percent of DMSO control values were calculated. IC50 values were generated using a 4-parameter fit of the dose response curve
By IC50 is commonly meant the concentration that gives 50% inhibition. The low end stands for higher potency, the high end for lower potency. Regarding `CCN1CCC[C@H]1COc1nc(N2C[C@H]3CC[C@@H](C2)N3)c2cnc(-c3cc(O)cc4ccccc34)c(F)c2n1` [Example 11, 4-(4-((1R,5S)-3,8-diazabicyclo[3.2.1]octan-3-yl)-2-(((S)-1-ethylpyrrolidin-2-yl)methoxy)-8-fluoropyrido[4,3-d]pyrimidin-7-yl)naphthalen-2-ol], the IC50 stood at 1.08 µM.

Compound `Fc1c(-c2cccc3cccc(Br)c23)ncc2c(N3C[C@H]4CC[C@@H](C3)N4)nc(OCC34CCCN3CCC4)nc12` [Example 235, 4-((1R,5S)-3,8-diazabicyclo[3.2.1]octan-3-yl)-7-(8-bromonaphthalen-1-yl)-8-fluoro-2-((tetrahydro-1H-pyrrolizin-7a(5H)-yl)methoxy)pyrido[4,3-d]pyrimidine] showed an IC50 of 0.339 µM.

The compound `CC1(C)CN2CCCC2(COc2nc(N3CC4CCC(C3)N4)c3cnc(-c4cccc5cccc(Cl)c45)c(F)c3n2)C1` [Example 228, 4-((1R,5S)-3,8-diazabicyclo[3.2.1]octan-3-yl)-7-(8-chloronaphthalen-1-yl)-2-((2,2-dimethyltetrahydro-1H-pyrrolizin-7a(5H)-yl)methoxy)-8-fluoropyrido[4,3-d]pyrimidine bis-2,2,2-trifluoroacetate] gave an IC50 of 13.7 µM.

In the case of `C=Cc1cccc2cccc(-c3ncc4c(N5C[C@H]6CC[C@@H](C5)N6)nc(OC[C@@H]5CCCN5C)nc4c3F)c12` [Example 201, 4-((1R,5S)-3,8-diazabicyclo[3.2.1]octan-3-yl)-8-fluoro-2-(((S)-1-methylpyrrolidin-2-yl)methoxy)-7-(8-vinylnaphthalen-1-yl)pyrido[4,3-d]pyrimidine], the IC50 came out at 13.9 µM.

The compound `CC(C)Cn1ccnc1CCOc1nc(N2C[C@H]3CC[C@@H](C2)N3)c2cnc(-c3cc(O)cc4ccccc34)c(F)c2n1` [Example 85, 4-(4-((1R,5S)-3,8-diazabicyclo[3.2.1]octan-3-yl)-8-fluoro-2-(2-(1-isobutyl-1H-imidazol-2-yl)ethoxy)pyrido[4,3-d]pyrimidin-7-yl)naphthalen-2-ol] had an IC50 greater than 16.7 µM.

In the case of `C[C@@H]1C[C@@H]1c1ccccc1-c1ncc2c(N3C[C@H]4CC[C@@H](C3)N4)nc(OCC34CCCN3CCC4)nc2c1F` [Example 286, 4-((1R,5S)-3,8-diazabicyclo[3.2.1]octan-3-yl)-8-fluoro-2-((hexahydro-1H-pyrrolizin-7a-yl)methoxy)-7-(2-((1S,2R)-2-methylcyclopropyl)phenyl)pyrido[4,3-d]pyrimidine], the IC50 came out at 1.73 µM.

Turning to `C#Cc1cccc2cc(O)cc(-c3ncc4c(N5C[C@H]6CC[C@@H](C5)N6)nc(OC[C@@]56CCCN5C[C@H](F)C6)nc4c3F)c12` [Example 243, 4-(4-((1R,5S)-3,8-diazabicyclo[3.2.1]octan-3-yl)-8-fluoro-2-(((2R,7aS)-2-fluorohexahydro-1H-pyrrolizin-7a-yl)methoxy)pyrido[4,3-d]pyrimidin-7-yl)-5-ethynylnaphthalen-2-ol], the IC50 is 0.0008 µM.

Regarding `Fc1c(-c2cccc(Cl)c2C2CC2)ncc2c(N3CC4CCC(C3)N4)nc(OCC34CCCN3C[C@H](F)C4)nc12` (mixture of isomers) [Example 342, 4-((1R,5S)-3,8-diazabicyclo[3.2.1]octan-3-yl)-7-(3-chloro-2-cyclopropylphenyl)-8-fluoro-2-((2-fluorotetrahydro-1H-pyrrolizin-7a(5H)-yl)methoxy)pyrido[4,3-d]pyrimidine], the IC50 was determined as 1 µM.

With `CN1CCC[C@H]1COc1nc(N2C[C@H]3CC[C@@H](C2)N3)c2cnc(-c3cc(O)cc4ccccc34)cc2n1` [Example 1, 4-(4-((1R,5S)-3,8-diazabicyclo[3.2.1]octan-3-yl)-2-(((S)-1-methylpyrrolidin-2-yl)methoxy)pyrido[4,3-d]pyrimidin-7-yl)naphthalen-2-ol tris-hydrochloride salt], the IC50 was 3.16 µM.

For the compound `OCc1cccc2cccc(-c3ncc4c(N5C[C@H]6CC[C@@H](C5)N6)nc(OCC56CCCN5CCC6)nc4c3F)c12` [Example 238, (8-(4-((1R,5S)-3,8-diazabicyclo[3.2.1]octan-3-yl)-8-fluoro-2-((tetrahydro-1H-pyrrolizin-7a(5H)-yl)methoxy)pyrido[4,3-d]pyrimidin-7-yl)naphthalen-1-yl)methanol], the IC50 was 4.66 µM.

`C#Cc1cccc2cccc(-c3ncc4c(N5C[C@H]6CC[C@@H](C5)N6)nc(OCC56CCCN5CCC6)nc4c3F)c12` [Example 179, 4-((1R,5S)-3,8-diazabicyclo[3.2.1]octan-3-yl)-7-(8-ethynylnaphthalen-1-yl)-8-fluoro-2-((hexahydro-1H-pyrrolizin-7a-yl)methoxy)pyrido[4,3-d]pyrimidine] had an IC50 of 0.0712 µM.

Turning to `Fc1c(-c2c(C(F)(F)F)ccc3[nH]ncc23)ncc2c(N3CC4CCC(C3)N4)nc(OCC34CCCN3C[C@H](F)C4)nc12` (mixture of isomers) [Example 343, 4-((1R,5S)-3,8-diazabicyclo[3.2.1]octan-3-yl)-8-fluoro-2-((2-fluorotetrahydro-1H-pyrrolizin-7a(5H)-yl)methoxy)-7-(5-(trifluoromethyl)-1H-indazol-4-yl)pyrido[4,3-d]pyrimidine], the IC50 turned out to be 1.62 µM.

Turning to `CCc1c(F)ccc2cc(O)cc(-c3ncc4c(N5C[C@H]6CC[C@@H](C5)N6)nc(OC[C@]56CCCN5[C@@H](COC(=O)N(C)C)CC6)nc4c3F)c12` [Example 441, ((3R,7aR)-7a-(((4-((1R,5S)-3,8-diazabicyclo[3.2.1]octan-3-yl)-7-(8-ethyl-7-fluoro-3-hydroxynaphthalen-1-yl)-8-fluoropyrido[4,3-d]pyrimidin-2-yl)oxy)methyl)hexahydro-1H-pyrrolizin-3-yl)methyl dimethylcarbamate], the IC50 worked out at 0.0041 µM.

On to `Oc1cc(-c2ncc3c(N4C[C@H]5CC[C@@H](C4)N5)nc(OCCc4ccc(F)cn4)nc3c2F)c2ccccc2c1` [Example 102, 4-(4-((1R,5S)-3,8-diazabicyclo[3.2.1]octan-3-yl)-8-fluoro-2-(2-(5-fluoropyridin-2-yl)ethoxy)pyrido[4,3-d]pyrimidin-7-yl)naphthalen-2-ol], for which 7.96 µM corresponded to half-maximal inhibition (IC50).

The compound `FCCc1cccc2cccc(-c3ncc4c(N5C[C@H]6CC[C@@H](C5)N6)nc(OCC56CCCN5CCC6)nc4c3F)c12` [Example 248, 4-((1R,5S)-3,8-diazabicyclo[3.2.1]octan-3-yl)-8-fluoro-7-(8-(2-fluoroethyl)naphthalen-1-yl)-2-((tetrahydro-1H-pyrrolizin-7a(5H)-yl)methoxy)pyrido[4,3-d]pyrimidine] yielded an IC50 of 1.08 µM.

`CN1CCC[C@H]1COc1nc(N2C[C@H]3CC[C@@H](C2)N3)c2cnc(-c3cccc4ccc(F)c(Cl)c34)c(F)c2n1` [Example 44, 4-((1R,5S)-3,8-diazabicyclo[3.2.1]octan-3-yl)-7-(8-chloro-7-fluoronaphthalen-1-yl)-8-fluoro-2-(((S)-1-methylpyrrolidin-2-yl)methoxy)pyrido[4,3-d]pyrimidine] gave an IC50 of 2.29 µM.

With `Fc1c(-c2cncc3cccc(Cl)c23)ncc2c(N3C[C@H]4CC[C@@H](C3)N4)nc(OC[C@]34CCCN3C[C@@H](F)C4)nc12` [Example 203, 4-((1R,5S)-3,8-diazabicyclo[3.2.1]octan-3-yl)-7-(5-chloroisoquinolin-4-yl)-8-fluoro-2-(((2S,7aR)-2-fluorotetrahydro-1H-pyrrolizin-7a(5H)-yl)methoxy)pyrido[4,3-d]pyrimidine], the IC50 came out at 2.18 µM.

For the compound `C#Cc1cccc2cccc(-c3ncc4c(N5C[C@H]6CC[C@@H](C5)N6)nc(OC[C@@H]5CCCN5C)nc4c3F)c12` [Example 206, 4-((1R,5S)-3,8-diazabicyclo[3.2.1]octan-3-yl)-7-(8-ethynylnaphthalen-1-yl)-8-fluoro-2-(((S)-1-methylpyrrolidin-2-yl)methoxy)pyrido[4,3-d]pyrimidine], the midpoint of inhibition, the IC50, lay at 0.9 µM.

With `NC(=O)Cc1cccc2cccc(-c3ncc4c(N5C[C@H]6CC[C@@H](C5)N6)nc(OCC56CCCN5CCC6)nc4c3F)c12` [Example 240, 2-(8-(4-((1R,5S)-3,8-diazabicyclo[3.2.1]octan-3-yl)-8-fluoro-2-((tetrahydro-1H-pyrrolizin-7a(5H)-yl)methoxy)pyrido[4,3-d]pyrimidin-7-yl)naphthalen-1-yl)acetamide], the IC50 is greater than 16.7 µM.

The compound `Oc1cc(-c2ncc3c(N4C[C@H]5CC[C@@H](C4)N5)nc(OCC45CCCN4CCC5)nc3c2F)c2c(Cl)c(F)ccc2c1` [Example 245, 4-(4-((1R,5S)-3,8-diazabicyclo[3.2.1]octan-3-yl)-8-fluoro-2-((hexahydro-1H-pyrrolizin-7a-yl)methoxy)pyrido[4,3-d]pyrimidin-7-yl)-5-chloro-6-fluoronaphthalen-2-ol] registered an IC50 of 0.0234 µM.

Compound `O[C@@H]1C[C@@H]2CN(c3nc(OCCc4ccc(F)cn4)nc4c(F)c(-c5cccc6cccc(Cl)c56)ncc34)C[C@H]1N2` [Example 32, (1R,5R,6R)-3-(7-(8-chloronaphthalen-1-yl)-8-fluoro-2-(2-(5-fluoropyridin-2-yl)ethoxy)pyrido[4,3-d]pyrimidin-4-yl)-3,8-diazabicyclo[3.2.1]octan-6-ol] showed an IC50 greater than 50 µM.
